Experimental data from patent US20250353891A1 (MEDIMMUNE LIMITED, priority 2022, published 2025).
Starred links: 1 amine or outer side, 2 acyl side, 3 side chain; linkers in the order of their positions; H or OH if unused. Non-standard residues stand in square brackets, D forms with d. Residues, ends and D or L forms follow the SMILES beside them. Groups on a side chain read outwards from the residue. *: point of attachment. Dip = N[C@H](C(=O)O)C(c1ccccc1)c1ccccc1; γGlu = O=C(O)[C@H](CCC(=O)[*:2])N[*:1]; Stearoyl = CCCCCCCCCCCCCCCCCC(=O)*; αMeF = C[C@](N)(Cc1ccccc1)C(=O)O; PEG4 = NCCOCCOCCOCCOCCC(=O)O; PEG2 = NCCOCCOCCC(=O)O; Aib = CC(C)(N)C(=O)O

Assays:
[1] = target: human GLP-1 receptor (hGLP-1R) (Homo sapiens, UniProt P43220); assay: cAMP production (HTRF) in CHO cells expressing hGLP-1R; format: cell-based; design: expressed in transfected cells; details: for EC50: Table 6, peptides modified at position 17, cAMP in CHO hGLP-1R cells, geometric mean, read-out: hGLP-1R EC50; for % Relative Potency Ratio: Table 6, % GLP-1R activity relative to GLP-1 / % GlucR activity relative to glucagon
human GLP-1 receptor (hGLP-1R), sequence (P43220 24-463): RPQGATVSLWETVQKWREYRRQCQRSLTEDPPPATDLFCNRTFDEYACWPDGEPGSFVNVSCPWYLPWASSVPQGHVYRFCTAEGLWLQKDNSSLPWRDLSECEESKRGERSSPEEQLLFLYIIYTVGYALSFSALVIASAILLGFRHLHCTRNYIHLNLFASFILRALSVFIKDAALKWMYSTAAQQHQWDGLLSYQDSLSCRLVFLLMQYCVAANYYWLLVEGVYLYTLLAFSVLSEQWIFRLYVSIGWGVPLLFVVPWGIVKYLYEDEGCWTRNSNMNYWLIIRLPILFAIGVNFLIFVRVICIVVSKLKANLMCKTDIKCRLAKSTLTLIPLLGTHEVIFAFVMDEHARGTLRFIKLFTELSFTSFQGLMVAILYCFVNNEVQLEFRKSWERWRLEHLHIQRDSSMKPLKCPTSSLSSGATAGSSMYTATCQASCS
Outline: (§1)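 Read-out: HTRF cAMP (anti-cAMP cryptate donor, cAMP-d2 acceptor in conjugate/lysis buffer), converted to % Delta F and fitted by 4-parameter logistic for EC50. Cell densities were 1×10^5 cells/mL (hGLP-1R) or 2×10^5 cells/mL (hGCGR). Stimulation lasted 30 min at room temperature.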

[2] = target: human glucagon receptor (hGCGR) (Homo sapiens, UniProt P47871); assay: cAMP production (HTRF) in CHO cells expressing hGCGR; format: cell-based; design: expressed in transfected cells; details: Table 6, peptides modified at position 17; cAMP in CHO hGCGR cells; geometric mean; read-out: hGluc-R EC50
human glucagon receptor (hGCGR), sequence (P47871 26-477): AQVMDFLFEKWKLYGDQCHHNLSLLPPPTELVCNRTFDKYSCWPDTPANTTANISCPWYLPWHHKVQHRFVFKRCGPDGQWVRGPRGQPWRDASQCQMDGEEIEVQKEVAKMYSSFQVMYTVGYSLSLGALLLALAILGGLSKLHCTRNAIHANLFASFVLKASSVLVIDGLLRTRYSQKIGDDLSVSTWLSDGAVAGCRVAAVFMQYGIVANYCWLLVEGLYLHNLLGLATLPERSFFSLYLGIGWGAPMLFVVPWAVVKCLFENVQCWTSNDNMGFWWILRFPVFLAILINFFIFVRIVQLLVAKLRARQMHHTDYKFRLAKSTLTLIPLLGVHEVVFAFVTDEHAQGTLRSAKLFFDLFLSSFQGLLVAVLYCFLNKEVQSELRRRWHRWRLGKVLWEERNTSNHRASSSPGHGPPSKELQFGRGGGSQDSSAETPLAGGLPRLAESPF
Outline: as §1

| SMILES | EC50 [1] | % Relative Potency Ratio [1] | EC50 [2] |
| --- | --- | --- | --- |
| CCCCCCCCCCCCCCCCCC(=O)N[C@@H](CCC(=O)N[C@@H](CCC(=O)NCCOCCOCCC(=O)NCCOCCOCCC(=O)NCCCC[C@H](NC(=O)[C@H](CO)NC(=O)[C@H](CC(=O)O)NC(=O)[C@H](CC(C)C)NC(=O)[C@@H](NC(=O)[C@H](CCCCN)NC(=O)[C@H](CO)NC(=O)[C@@H](NC(=O)[C@H](CC(=O)O)NC(=O)[C@H](CO)NC(=O)[C@@H](NC(=O)[C@](C)(Cc1ccccc1)NC(=O)[C@H](CO)NC(=O)CNC(=O)[C@H](CCC(N)=O)NC(=O)[C@H](CO)NC(=O)[C@@H](N)Cc1c[nH]cn1)[C@@H](C)O)C(C)C)C(c1ccccc1)c1ccccc1)C(=O)N[C@@H](C)C(=O)N[C@@H](C)C(=O)N[C@@H](CCC(N)=O)C(=O)N[C@@H](CC(=O)O)C(=O)N[C@@](C)(Cc1ccccc1)C(=O)N[C@H](C(=O)N[C@@H](CCC(N)=O)C(=O)NC(C)(C)C(=O)N[C@H](C(=O)N[C@@H](C)C(=O)N[C@@H](CC(N)=O)C(N)=O)[C@@H](C)CC)C(C)C)C(=O)O)C(=O)O [Peptide 54] (H-HSQGS[αMeF]TSDVSK[Dip]LDSK([PEG2-PEG2-γGlu-γGlu-Stearoyl])AAQD[αMeF]VQ[Aib]IAN-NH2; N-terminus assumed) | 2.81 pM | 1.8 | 2.59 pM |
| CCCCCCCCCCCCCCCCCC(=O)N[C@@H](CCC(=O)N[C@@H](CCC(=O)NCCOCCOCCC(=O)NCCOCCOCCC(=O)NCCCC[C@H](NC(=O)[C@H](CO)NC(=O)[C@H](CC(=O)O)NC(=O)[C@H](CC(C)C)NC(=O)[C@@H](NC(=O)[C@H](CCCCN)NC(=O)[C@H](CO)NC(=O)[C@@H](NC(=O)[C@H](CC(=O)O)NC(=O)[C@H](CO)NC(=O)[C@@H](NC(=O)[C@](C)(Cc1ccccc1)NC(=O)[C@H](CO)NC(=O)CNC(=O)[C@H](CCC(N)=O)NC(=O)[C@H](CO)NC(=O)[C@@H](N)Cc1c[nH]cn1)[C@@H](C)O)C(C)C)C(c1ccccc1)c1ccccc1)C(=O)N[C@@H](C)C(=O)N[C@@H](C)C(=O)N[C@@H](CCC(N)=O)C(=O)N[C@@H](CC(=O)O)C(=O)N[C@@](C)(Cc1ccccc1)C(=O)N[C@H](C(=O)N[C@@H](CCC(N)=O)C(=O)N[C@H](C(=O)N[C@@H](CC(C)C)C(=O)N[C@@H](CCC(=O)O)C(=O)N[C@@H](C)C(N)=O)C(c1ccccc1)c1ccccc1)C(C)C)C(=O)O)C(=O)O [Peptide 55] (H-HSQGS[αMeF]TSDVSK[Dip]LDSK([PEG2-PEG2-γGlu-γGlu-Stearoyl])AAQD[αMeF]VQ[Dip]LEA-NH2; N-terminus assumed) | 18.8 pM | 2.0 | 19.1 pM |
| CCCCCCCCCCCCCCCCCC(=O)N[C@@H](CCC(=O)N[C@@H](CCC(=O)NCCOCCOCCOCCOCCC(=O)NCCCC[C@H](NC(=O)[C@H](CO)NC(=O)[C@H](CC(=O)O)NC(=O)[C@H](CC(C)C)NC(=O)[C@@H](NC(=O)[C@H](CCCCN)NC(=O)[C@H](CO)NC(=O)[C@@H](NC(=O)[C@H](CC(=O)O)NC(=O)[C@H](CO)NC(=O)[C@@H](NC(=O)[C@](C)(Cc1ccccc1)NC(=O)[C@H](CO)NC(=O)CNC(=O)[C@H](CCC(N)=O)NC(=O)[C@H](CO)NC(=O)[C@@H](N)Cc1c[nH]cn1)[C@@H](C)O)C(C)C)C(c1ccccc1)c1ccccc1)C(=O)N[C@@H](C)C(=O)N[C@@H](C)C(=O)N[C@@H](CCC(N)=O)C(=O)N[C@@H](CC(=O)O)C(=O)N[C@@](C)(Cc1ccccc1)C(=O)N[C@H](C(=O)N[C@@H](CCC(=O)O)C(=O)NC(C)(C)C(=O)N[C@H](C(=O)N[C@H](C(=O)N[C@@H](CC(N)=O)C(=O)N[C@H](C(N)=O)[C@@H](C)O)[C@@H](C)CC)[C@@H](C)CC)C(C)C)C(=O)O)C(=O)O [Peptide 56] (H-HSQGS[αMeF]TSDVSK[Dip]LDSK([PEG4-γGlu-γGlu-Stearoyl])AAQD[αMeF]VE[Aib]IINT-NH2; N-terminus assumed) | 4.86 pM | 4.4 | 10.9 pM |
